The results in this text go back to PubChem BioAssay AID1259411 (Chemical Carcinogenesis Research Information System (CCRIS), 2018).

Activity calls are given as the source filed them. The rule behind the calls is not given here.

The data set deals with rodent carcinogenicity bioassays, tumor incidence. Description: CCRIS carcinogenicity studies. An outline of the steps:
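NCI-built, expert-reviewed records of carcinogenicity and related test outcomes (mutagenicity, tumor promotion/inhibition) compiled from published and report sources, historical span 1985-2011, not updated.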

For the compound `ClC1(Cl)C2(Cl)C3(Cl)C4(Cl)C(Cl)(Cl)C5(Cl)C3(Cl)C1(Cl)C5(Cl)C24Cl` (stereo not drawn), the carcinogen call (Species: MOUSE, Strain/Sex: B6AKF1/MALE,FEMALE, Route: GAVAGE/ORAL, Dose: 10 MG/KG FROM D 7- 28 OF LIFE THEN 26 PPM IN DIET, Tumor Site: Type of Lesion: LIVER: HEPATOMA) is “active; positive”; the carcinogen call (Species: MOUSE, Strain/Sex: B6C3F1/MALE,FEMALE, Route: GAVAGE/ORAL, Dose: 10 MG/KG FROM D 7- 28 OF LIFE THEN 26 PPM IN DIET, Tumor Site: Type of Lesion: LIVER: HEPATOMA) is “active; positive”; the carcinogen call (Species: RAT, Route: ORAL, Tumor Site: Type of Lesion: LIVER) is “active; positive”; the carcinogen call (Species: RAT, Strain/Sex: F344/FEMALE, Route: ORAL, Dose: 0, 0.1, 1, 10, 25, 50 PPM IN FEED FOR 104 WK (STUDY DURATION: 105 WK), Dose: 0, 0.1, 1, 10, 25, 50 PPM IN FEED FOR 104 WK (STUDY DURATION: 105 WK), Tumor Site: Type of Lesion: HEMATOPOIETIC SYSTEM: MONONUCLEAR CELL LEUKEMIA) was “active; positive”; the carcinogen call (Species: RAT, Strain/Sex: F344/FEMALE, Route: ORAL, Dose: 0, 50, 100 PPM IN FEED FOR 104 WK (STUDY DURATION: 106 WK), Dose: 0, 50, 100 PPM IN FEED FOR 104 WK (STUDY DURATION: 106 WK), Tumor Site: Type of Lesion: HEMATOPOIETIC SYSTEM: MONONUCLEAR CELL LEUKEMIA, LIVER: NEOPLASTIC NODULE, NEOPLASTIC NODULE OR HEPATOCELLULAR CARCINOMA) is “active; positive”; the carcinogen call (Species: RAT, Strain/Sex: F344/MALE, Route: ORAL, Dose: 0, 0.1, 1, 10, 25, 50 PPM IN FEED FOR 104 WK (STUDY DURATION: 105 WK), Dose: 0, 0.1, 1, 10, 25, 50 PPM IN FEED FOR 104 WK (STUDY DURATION: 105 WK), Tumor Site: Type of Lesion: LIVER: NEOPLASTIC NODULE, NEOPLASTIC NODULE OR HEPATOCELLULAR CARCINOMA, ADRENAL GLAND: PHEOCHROMOCYTOMA, PHEOCHROMOCYTO) was “active; positive”.
On to `ClC(Cl)(Cl)C(Cl)(Cl)Cl`, for which the carcinogen call is “active; positive” (Species: MOUSE, Strain/Sex: B6C3F1/FEMALE, Route: GAVAGE, Dose: 0, 590, 1179 MG/KG, TWA, Dose: 0, 590, 1179 MG/KG, TWA, Tumor Site: Type of Lesion: LIVER: HEPATOCELLULAR CARCINOMA); “active; positive” (Species: MOUSE, Strain/Sex: B6C3F1/MALE, Route: GAVAGE, Dose: 0, 590, 1179 MG/KG, TWA, Dose: 0, 590, 1179 MG/KG, TWA, Tumor Site: Type of Lesion: LIVER: HEPATOCELLULAR CARCINOMA); “inactive; negative” (Species: RAT, Strain/Sex: F344/F, Route: GAVAGE, Dose: 0, 80, 160 MG/KG IN CORN OIL 5D/WK FOR 103 WK (STUDY DURATION: 105 WK), Dose: 0, 80, 160 MG/KG IN CORN OIL 5D/WK FOR 103 WK (STUDY DURATION: 105 WK)); “active; positive” (Species: RAT, Strain/Sex: F344/M, Route: GAVAGE, Dose: 0, 10, 20 MG/KG IN CORN OIL 5D/WK FOR 103 WK (STUDY DURATION: 105 WK), Dose: 0, 10, 20 MG/KG IN CORN OIL 5D/WK FOR 103 WK (STUDY DURATION: 105 WK), Tumor Site: Type of Lesion: ADRENAL MEDULLA: PHEOCHROMOCYTOMA, ADRENAL MEDULLA: PHEOCHROMOCYTOMA, BENIGN, COMPLEX OR MALIGNANT, KIDNEY: RENAL TUBULE, Tumor Site: Type of Lesion: ADRENAL MEDULLA: PHEOCHROMOCYTOMA, ADRENAL MEDULLA: PHEOCHROMOCYTOMA, BENIGN, COMPLEX OR MALIGNANT, KIDNEY: RENAL TUBULE); “inactive; negative” (Species: RAT, Strain/Sex: OSBORNE-MENDEL/FEMALE, Route: GAVAGE, Dose: 0, 212, 423 MG/KG, TWA FOR 44 WK, Dose: 0, 212, 423 MG/KG, TWA FOR 44 WK); “inactive; negative” (Species: RAT, Strain/Sex: OSBORNE-MENDEL/MALE, Route: GAVAGE, Dose: 0, 212, 423 MG/KG, TWA FOR 44 WK, Dose: 0, 212, 423 MG/KG, TWA FOR 44 WK).
As for `O=NN1CCN(N=O)CC1`, the carcinogen call (Species: RAT, Strain/Sex: F344/FEMALE, Route: INTRAVESICAL, Dose: 0, 374 MG (TOTAL DOSE) INJECTED INTO BLADDER 2/WK OVER 36 WK (STUDY DURATION: 102 WK), Tumor Site: Type of Lesion: NASAL CAVITY: TUMOR) is “active; positive”.
For `O=C1CCc2ccccc2O1`, the carcinogen call was “active; positive” (Species: MOUSE, Strain/Sex: B6C3F1/FEMALE, Route: GAVAGE, Dose: 0, 200, 400, 800 MG/KG IN CORN OIL 1/D 5 D/WK FOR 103 WK (STUDY DURATION: 103 WK), Dose: 0, 200, 400, 800 MG/KG IN CORN OIL 1/D 5 D/WK FOR 103 WK (STUDY DURATION: 103 WK), Tumor Site: Type of Lesion: LIVER: HEPATOCELLULAR ADENOMA, HEPATOCELLULAR ADENOMA OR CARCINOMA); “inactive; negative” (Species: MOUSE, Strain/Sex: B6C3F1/MALE, Route: GAVAGE, Dose: 0, 200, 400, 800 MG/KG IN CORN OIL 1/D 5 D/WK FOR 103 WK (STUDY DURATION: 103 WK), Dose: 0, 200, 400, 800 MG/KG IN CORN OIL 1/D 5 D/WK FOR 103 WK (STUDY DURATION: 103 WK)); “inactive; negative” (Species: RAT, Strain/Sex: F344/FEMALE, Route: GAVAGE, Dose: 0, 150, 300, 600 MG/KG IN CORN OIL 1/D 5 D/WK FOR 103 WK (STUDY DURATION: 103 WK), Dose: 0, 150, 300, 600 MG/KG IN CORN OIL 1/D 5 D/WK FOR 103 WK (STUDY DURATION: 103 WK)); “active; positive” (Species: RAT, Strain/Sex: F344/MALE, Route: GAVAGE, Dose: 0, 150, 300, 600 MG/KG IN CORN OIL 1/D 5 D/WK FOR 103 WK (STUDY DURATION: 103 WK), Dose: 0, 150, 300, 600 MG/KG IN CORN OIL 1/D 5 D/WK FOR 103 WK (STUDY DURATION: 103 WK), Tumor Site: Type of Lesion: KIDNEY (RENAL TUBULE): ADENOMA).
For the compound `O[C@@H]1[C@@H](O)[C@@H](O)OC[C@H]1O`, the carcinogen call reads like this: (Species: RAT, Strain/Sex: F344/FEMALE, Route: ORAL (DIET), Dose: 0, 2.5%, 5% FOR 104 WKS (STUDY DURATION: 104 WKS), Dose: 0, 2.5%, 5% FOR 104 WKS (STUDY DURATION: 104 WKS)) “inactive; negative”; (Species: RAT, Strain/Sex: F344/MALE, Route: ORAL (DIET), Dose: 0, 2.5%, 5% FOR 104 WKS (STUDY DURATION: 104 WKS), Dose: 0, 2.5%, 5% FOR 104 WKS (STUDY DURATION: 104 WKS)) “inactive; negative”.
`O=C(CCl)c1ccccc1`: the carcinogen call reads like this: (Species: MOUSE, Strain/Sex: B6C3F1/FEMALE, Route: INHALATION, Dose: 0, 2, 4 MG/M3 6 HR/D 5 D/WK FOR 103 WK (STUDY DURATION: 105 WK), Dose: 0, 2, 4 MG/M3 6 HR/D 5 D/WK FOR 103 WK (STUDY DURATION: 105 WK)) “inactive; negative”; (Species: MOUSE, Strain/Sex: B6C3F1/MALE, Route: INHALATION, Dose: 0, 2, 4 MG/M3 6 HR/D 5 D/WK FOR 103 WK (STUDY DURATION: 105 WK), Dose: 0, 2, 4 MG/M3 6 HR/D 5 D/WK FOR 103 WK (STUDY DURATION: 105 WK)) “inactive; negative”; (Species: RAT, Strain/Sex: F344/FEMALE, Route: INHALATION, Dose: 0, 1, 2 MG/M3 6 HR/D 5 D/WK FOR 103 WK (STUDY DURATION: 105 WK), Dose: 0, 1, 2 MG/M3 6 HR/D 5 D/WK FOR 103 WK (STUDY DURATION: 105 WK), Tumor Site: Type of Lesion: MAMMARY GLAND: FIBROADENOMA) “equivocal”; (Species: RAT, Strain/Sex: F344/MALE, Route: INHALATION, Dose: 0, 1, 2 MG/M3 6 HR/D 5 D/WK FOR 103 WK (STUDY DURATION: 105 WK), Dose: 0, 1, 2 MG/M3 6 HR/D 5 D/WK FOR 103 WK (STUDY DURATION: 105 WK)) “inactive; negative”.
On to `ClC(Cl)=C(Cl)C(Cl)=C(Cl)Cl`, for which the carcinogen call (Species: RAT, Strain/Sex: SPRAGUE-DAWLEY/MALE,FEMALE, Route: ORAL, Dose: 0.2, 2.0, 20 MG/KG/DAY IN DIET, Dose: 0.2, 2.0, 20 MG/KG/DAY IN DIET, Tumor Site: Type of Lesion: KIDNEY: RENAL TUBULAR ADENOMA, ADENOCARCINOMA) was “active; positive”.
Take `CCO`: the carcinogen call reads like this: (Species: MOUSE, Strain/Sex: B6C3F1/FEMALE (48/GROUP), Route: ORAL, Dose: 2.5% OR 5% IN DRINKING WATER (STUDY DURATION: 2 YRS)) “inactive; negative; inadequate study to determine carcinogenic activity”; (Species: MOUSE, Strain/Sex: B6C3F1/MALE (48/GROUP), Route: ORAL, Dose: 2.5% OR 5% IN DRINKING WATER (STUDY DURATION: 2 YRS), Tumor Site: Type of Lesion: LIVER: HEPATOCELLULAR ADENOMA OR CARCINOMA (COMBINED)) “active; positive; inadequate study to determine carcinogenic activity”; (Species: RAT, Strain/Sex: SPRAGUE-DAWLEY/FEMALE, Route: ORAL, Dose: 0, 1, 3% IN LIQUID DIET FOR 104 WK (STUDY DURATION: 120 WK), Dose: 0, 1, 3% IN LIQUID DIET FOR 104 WK (STUDY DURATION: 120 WK)) “inactive; negative”; (Species: RAT, Strain/Sex: SPRAGUE-DAWLEY/MALE, Route: ORAL, Dose: 0, 1, 3% IN LIQUID DIET FOR 104 WK (STUDY DURATION: 120 WK), Dose: 0, 1, 3% IN LIQUID DIET FOR 104 WK (STUDY DURATION: 120 WK)) “inactive; negative”.
